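Interpolation was linear, between the two tested concentrations surrounding the appropriate level; five concentrations were tested over 48 hours in 96-well plates. The concentration for 50% growth inhibition is given as GI50. TGI: total growth inhibition.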
Legend:
Experiment in all cases: DTP human tumour cell line panel, 48 h; in the data active = GI50 below about 0.43 µM; inactive = the rest
SF-539 CNS = system: SF-539 CNS
PC-3 prostate = system: PC-3 prostate
A549 NSCLC = system: A549 NSCLC
SF-268 CNS = system: SF-268 CNS
COLO 205 colon = system: COLO 205 colon
786-0 renal = system: 786-0 renal
OVCAR-3 ovarian = system: OVCAR-3 ovarian
MDA-MB-231 breast = system: MDA-MB-231 breast
MDA-MB-435 = system: MDA-MB-435
SR leukemia = system: SR leukemia
NCI-H23 lung = system: NCI-H23 lung
M14 melanoma = system: M14 melanoma
HCT-15 colon = system: HCT-15 colon
SNB-19 CNS = system: SNB-19 CNS
SW-620 colon = system: SW-620 colon
ACHN renal = system: ACHN renal
KM12 colon = system: KM12 colon
SK-OV-3 ovarian = system: SK-OV-3 ovarian
IGROV1 ovarian = system: IGROV1 ovarian
NCI-H522 lung = system: NCI-H522 lung
NCI-H226 lung = system: NCI-H226 lung
HOP-62 NSCLC = system: HOP-62 NSCLC
OVCAR-5 ovarian = system: OVCAR-5 ovarian
K-562 leukemia = system: K-562 leukemia
SF-295 CNS = system: SF-295 CNS
UACC-62 melanoma = system: UACC-62 melanoma
MOLT-4 leukemia = system: MOLT-4 leukemia
RXF 393 renal = system: RXF 393 renal
SN12C renal = system: SN12C renal
HT29 colon = system: HT29 colon
EKVX NSCLC = system: EKVX NSCLC
SK-MEL-28 melanoma = system: SK-MEL-28 melanoma
U251 CNS = system: U251 CNS
CAKI-1 renal = system: CAKI-1 renal
DU-145 prostate = system: DU-145 prostate
UO-31 renal = system: UO-31 renal
OVCAR-8 ovarian = system: OVCAR-8 ovarian
TK-10 renal = system: TK-10 renal
NCI/ADR-RES ovarian = system: NCI/ADR-RES ovarian
OVCAR-4 ovarian = system: OVCAR-4 ovarian
LOX IMVI melanoma = system: LOX IMVI melanoma
HOP-92 NSCLC = system: HOP-92 NSCLC
MALME-3M melanoma = system: MALME-3M melanoma
BT-549 breast = system: BT-549 breast
SNB-75 CNS = system: SNB-75 CNS
HCT-116 colon = system: HCT-116 colon
T-47D breast = system: T-47D breast
NCI-H460 lung = system: NCI-H460 lung
RPMI-8226 leukemia = system: RPMI-8226 leukemia
SK-MEL-5 melanoma = system: SK-MEL-5 melanoma
UACC-257 melanoma = system: UACC-257 melanoma
HS 578T breast = system: HS 578T breast
A498 renal = system: A498 renal
SK-MEL-2 melanoma = system: SK-MEL-2 melanoma
MCF7 breast = system: MCF7 breast
HL-60(TB) leukemia = system: HL-60(TB) leukemia

COc1ccc(CC(C)C(C)Cc2ccc(OC)c(OC)c2)cc1OC (configuration not stated)
inactive: GI50 (SF-539 CNS) > 1400 µM | GI50 (PC-3 prostate) > 1400 µM | GI50 (A549 NSCLC) 600 µM | GI50 (SF-268 CNS) > 1400 µM | GI50 (COLO 205 colon) > 1400 µM | GI50 (786-0 renal) 804 µM | GI50 (OVCAR-3 ovarian) > 1400 µM | GI50 (MDA-MB-231 breast) 126 µM | GI50 (MDA-MB-435) > 1400 µM | GI50 (SR leukemia) 915 µM | GI50 (NCI-H23 lung) 297 µM | GI50 (M14 melanoma) > 1400 µM | GI50 (HCT-15 colon) > 1400 µM | GI50 (SNB-19 CNS) > 1400 µM | GI50 (SW-620 colon) > 1400 µM | GI50 (ACHN renal) > 1400 µM | GI50 (KM12 colon) > 1400 µM | GI50 (SK-OV-3 ovarian) > 1400 µM | GI50 (IGROV1 ovarian) 800 µM | GI50 (NCI-H522 lung) 79.7 µM | GI50 (NCI-H226 lung) 908 µM | GI50 (HOP-62 NSCLC) 750 µM | GI50 (OVCAR-5 ovarian) > 1400 µM | GI50 (K-562 leukemia) > 1400 µM | GI50 (SF-295 CNS) 642 µM | GI50 (UACC-62 melanoma) 1130 µM | GI50 (MOLT-4 leukemia) > 1400 µM | GI50 (RXF 393 renal) 255 µM | GI50 (SN12C renal) > 1400 µM | GI50 (HT29 colon) > 1400 µM | GI50 (EKVX NSCLC) 986 µM | GI50 (SK-MEL-28 melanoma) > 1400 µM | GI50 (U251 CNS) 802 µM | GI50 (CAKI-1 renal) > 1400 µM | GI50 (DU-145 prostate) > 1400 µM | GI50 (UO-31 renal) > 1400 µM | GI50 (OVCAR-8 ovarian) > 1400 µM | GI50 (TK-10 renal) > 1400 µM | GI50 (NCI/ADR-RES ovarian) > 1400 µM | GI50 (OVCAR-4 ovarian) 1140 µM | GI50 (LOX IMVI melanoma) > 1400 µM | GI50 (HOP-92 NSCLC) 235 µM | GI50 (MALME-3M melanoma) > 1400 µM | GI50 (BT-549 breast) > 1400 µM | GI50 (SNB-75 CNS) > 1400 µM | GI50 (HCT-116 colon) 1280 µM | GI50 (T-47D breast) > 1400 µM | GI50 (NCI-H460 lung) > 1400 µM | GI50 (RPMI-8226 leukemia) 96.7 µM | GI50 (SK-MEL-5 melanoma) 112 µM | GI50 (UACC-257 melanoma) 80.7 µM | GI50 (HS 578T breast) > 1400 µM | GI50 (A498 renal) > 1400 µM | GI50 (SK-MEL-2 melanoma) > 1400 µM | GI50 (MCF7 breast) 650 µM | GI50 (HL-60(TB) leukemia) > 1400 µM
950 µM: TGI (RXF 393 renal)
> 1400 µM: TGI (SF-539 CNS) | TGI (PC-3 prostate) | TGI (A549 NSCLC) | TGI (SF-268 CNS) | TGI (COLO 205 colon) | TGI (786-0 renal) | TGI (OVCAR-3 ovarian) | TGI (MDA-MB-231 breast) | TGI (MDA-MB-435) | TGI (SR leukemia) | TGI (NCI-H23 lung) | TGI (M14 melanoma) | TGI (HCT-15 colon) | TGI (SNB-19 CNS) | TGI (SW-620 colon) | TGI (ACHN renal) | TGI (KM12 colon) | TGI (SK-OV-3 ovarian) | TGI (IGROV1 ovarian) | TGI (NCI-H522 lung) | TGI (NCI-H226 lung) | TGI (HOP-62 NSCLC) | TGI (OVCAR-5 ovarian) | TGI (K-562 leukemia) | TGI (SF-295 CNS) | TGI (UACC-62 melanoma) | TGI (MOLT-4 leukemia) | TGI (SN12C renal) | TGI (HT29 colon) | TGI (EKVX NSCLC) | TGI (SK-MEL-28 melanoma) | TGI (U251 CNS) | TGI (CAKI-1 renal) | TGI (DU-145 prostate) | TGI (UO-31 renal) | TGI (OVCAR-8 ovarian) | TGI (TK-10 renal) | TGI (NCI/ADR-RES ovarian) | TGI (OVCAR-4 ovarian) | TGI (LOX IMVI melanoma) | TGI (HOP-92 NSCLC) | TGI (MALME-3M melanoma) | TGI (BT-549 breast) | TGI (SNB-75 CNS) | TGI (HCT-116 colon) | TGI (T-47D breast) | TGI (NCI-H460 lung) | TGI (RPMI-8226 leukemia) | TGI (SK-MEL-5 melanoma) | TGI (UACC-257 melanoma) | TGI (HS 578T breast) | TGI (A498 renal) | TGI (SK-MEL-2 melanoma) | TGI (MCF7 breast) | TGI (HL-60(TB) leukemia)

Reference: PubChem BioAssay (NCI)
